Assays:
[1] = system: c-kit positive marrow progenitor cells; assay: bone marrow c-kit-positive progenitor cells: cell cycle and colony forming assay; type: cell-based
Method: FIG. 16. (a) Effect of stilbenes in normal bone marrow progenitor cells. c-kit-positive bone marrow mononuclear cells were isolated for incubation with stilbenes 4a or 4c at 0.1 or 0.5 […] for 16 hours. Cells were harvested for fixation and PI staining. Cell cycle analysis and quantification of the subG0/1 population were analyzed by FACScan flow cytometry. The percentages of the apoptotic population were indicated. Shown are the representatives of two independent experiments. (b) Effect of stilbenes in HL60 cells as positive control. HL60 cells were treated with stilbenes 4a or 4c in the same medium as the positive control. (c) Colony forming assay of the stilbene-treated c-kit-positive cells. A fraction of the cells in (a) were diluted and plated on methylcellulose medium at various densities. Cells were incubated for 14 days and the grossly visible colonies were counted. […] Isolated bone marrow c-kit-positive progenitor cells were incubated with DMSO or stilbenes 4a or 4c at 0.1 or 0.5 μM for 16 hours and injected into tail veins of CD45 congenic mice lethally irradiated with 1200 cGy. Mice were monitored for survival and lineage-specific donor engraftment by flow cytometry analysis of peripheral blood. The percentage of donor cells in T, B, and granulocytic series of the recipients were studied at 7 and 14 weeks after transplantation. Stilbene treated c-Kit progenitor cells had the same percentage as the DMSO treated control in all series.
Mouse bone marrow was harvested from femur and tibia of […], subjected to red blood cell lysis, and labeled with anti-c-kit (3C11; CALTAG Laboratories, Burlingame, Calif.) and streptavidin-conjugated microbeads for MACS separation (Miltenyi Biotech, Auburn, Calif.). The c-kit positive marrow progenitor cells were incubated in Iscove's Modified Eagle's Media supplemented with 30% fetal bovine serum, erythropoietin, stem cell factor and interleukin-3 with or without stilbenes 4a or 4c. The ability of long-term proliferation of the c-kit-positive cells was evaluated with colony forming assay. Cells were first treated with DMSO, stilbenes 4a or 4c for 5 h and a fraction of the cells (4000 cells) were plated in the same enriched culture media with methylcellulose for colony forming assays. The grossly visible colonies were counted after 14 days of incubation.

[2] = system: SNU423 hepatocellular carcinoma cells; assay: Alamar Blue cell growth inhibition, SNU423; type: cell-based; conditions: SNU423
Method: Cell growth was measured by Alamar Blue™ staining and the OD absorbance at 570 and 600 nm was determined by a microplate reader. The percentage of cell growth inhibition was calculated and compared with the control cells that were treated with 0.1% DMSO, the vehicle for the stilbene compounds.
Various cancer cell lines were grown in 96-well plates for drug sensitivity assays. Once cells achieved 50% confluence, the incubation media was changed to the same cell growth media with different concentrations of the tested compounds or vehicle alone. Cells were then incubated for 48 hours before the cell growth inhibition study. To determine the degree of cell growth inhibition, 1/10 volume of Alamar Blue™ solution was added to each well and optical density (OD) at 570 and 600 nm was determined. The percentage of growth inhibition was calculated according to the manufacturer's formula as follows: The percentage of growth is [(117216×A570)−(80586×A600)]/[(117216×A^o570)−(80586×A^o600)]×100. In this formula, A570 is the absorbance of the treated samples at 570 nm; A600 is the absorbance of the treated samples at 600 nm; A^o570 is the absorbance of the […] samples at 570 nm; and A^o600 is the absorbance of the untreated samples at 600 nm. The two constants, 117216 and 80586, are the extinction coefficients of Alamar Blue™ at 570 and 600 nm respectively. Each concentration was repeated in triplicate to minimize the error.
We first tested the cytotoxic effect of various stilbene derivatives for their in vitro efficacy of suppressing tumor cell proliferation. Cells were first plated in 96-well plates at 50% confluence and treated with 0, 0.01, 0.03, 0.1, 0.3, 1.0, 3.0, 10 μM concentrations of stilbene derivatives for 48 hours in triplicate. Alamar Blue™ reagent was added into each well at 1/10 volume and incubated for 2 hours before quantification of the absorbance at 570 and 600 nm.

[3] = system: UCI101 ovarian cancer cells; assay: Western blot of signal transduction events, UCI101; type: cell-based
Method: All these agents are microtubule interfering agents but with different binding sites. Cells were harvested at 0, 4, 8, 16 and 36 hours after drug treatment for Western blot analysis. […] Phosphorylation of both Cdc25C and Cdc2 disappeared after 16 hours and slightly recovered at 36 hours. […] Akt phosphorylation decreased after 16 hours of treatment.
In order to understand the mechanism of resistance of stilbenes, various signal transduction pathways were investigated to examine how cells respond to stilbene treatment. UCI101 ovarian cancer cells were treated with stilbenes 4a, 4c or paclitaxel (Taxol) at 0.1 μM for 0, 4, 8, 16 and 36 hours. Cells were harvested for Western blotting. Changes in the kinases involved in cell cycle progression from G2-M transition were first determined in Cdc2, Cdc25c, and mitotic spindle check point regulator BubR1. […] 36 hours after treatment, rephosphorylation of Cdc2 was observed. […] The higher molecular weight isomer of Cdc25c, the mitotic form, increased at 16 and 36 hours. […] A similar study was then performed with other microtubule interfering agents such as combretastatin A4, 13a and vincristine for comparison. A similar trend was observed among these three microtubule interfering agents (FIG. 18).

[4] = system: c-kit-positive progenitor cells (engraftment); assay: bone marrow transplantation of stilbene-treated progenitor cells; type: in vivo, mice; conditions: cells incubated at 0.1 or 0.5 μM for 16 hours
Method: FIG. 16. (a) Effect of stilbenes in normal bone marrow progenitor cells. c-kit-positive bone marrow mononuclear cells were isolated for incubation with stilbenes 4a or 4c at 0.1 or 0.5 […] for 16 hours. Cells were harvested for fixation and PI staining. Cell cycle analysis and quantification of the subG0/1 population were analyzed by FACScan flow cytometry. The percentages of the apoptotic population were indicated. Shown are the representatives of two independent experiments. (b) Effect of stilbenes in HL60 cells as positive control. HL60 cells were treated with stilbenes 4a or 4c in the same medium as the positive control. (c) Colony forming assay of the stilbene-treated c-kit-positive cells. […] Cells were incubated for 14 days and the grossly visible colonies were counted. […] Mice were monitored for survival and lineage-specific donor engraftment by flow cytometry analysis of peripheral blood. […]
C57BL/6J (H2b, CD45.2) mice served as bone marrow donors and were between 6-10 weeks of age. […] Peripheral blood engraftment in recipient mice was assessed by flow cytometry analysis for CD3+ (145-2C11; BD Biosciences, San Jose, Calif.) T-cells, B220+ (RA3-6B2) B-cells, Mac1+ (M1/70.15) monocytes, and Gr1+ (8C5) granulocytes and distinguished between donor versus recipient with anti-CD45.1 (A20) and anti-CD45.2 (104) monoclonal antibodies.

[5] = system: tubulin (colchicine site); assay: [3H]-colchicine competition for binding tubulin; conditions: 20 min, 37° C.
Method: FIG. 3a-d. […] (a) Effect of stilbene 4a. Pure tubulin was incubated with various concentrations of stilbene 4a, 10 μM nocodazole, and 10 μM paclitaxel in the polymerization buffer. The OD at 340 nm was monitored every minute by SpectraMAX 250 and plotted against time. (b) Effect of stilbene 4c. (c) Comparison of same concentrations of stilbenes 4a, 4a trans, 4c and 4c trans with control. […] The radioactivity of the tubulin was counted. […] All experiments were done in triplicates.
Tubulin retained in the Microcon was washed three times with PBS. The radioactivity of the final concentrated tubulin was determined by a scintillation counter.

Tubulin (>99% pure) = assay: tubulin polymerization assay (OD 340 nm); type: biochemical; conditions: OD340 nm; nocodazole and paclitaxel 10 μM
Method: FIG. 3a-d. Stilbenes inhibit tubulin polymerization. (a) Effect of stilbene 4a. Pure tubulin was incubated with various concentrations of stilbene 4a, 10 μM nocodazole, and 10 μM paclitaxel in the polymerization buffer. The OD at 340 nm was monitored every minute by SpectraMAX 250 and plotted against time. (b) Effect of stilbene 4c. (c) Comparison of same concentrations of stilbenes 4a, 4a trans, 4c and 4c trans with control. […] Tubulin was incubated with [^3H]-colchicine and various concentrations of different stilbenes for 20 min. Tubulin was then separated from the unbound [^3H]-colchicine by Microcon-30 and washed three times with PBS. The radioactivity of the tubulin was counted. […] All experiments were done in triplicates.
The tubulin polymerization assay kit was purchased from Cytoskeleton (Denver, Colo.). Tubulin (>99% pure) was mixed with general tubulin buffer (GTB, 80 mM PIPES pH 6.9, 2 mM MgCl2, 0.5 mM EGTA, and 1 mM GTP) in a 96-well plate at 37° C. Absorbance at 340 nm was measured every 1 min for 60 min by SpectraMAX 250 (Molecular Devices, Sunnyville, Calif.). Analysis of the results was performed by SoftMAX Pro version 1.2.0 from the same company.

Structure (SMILES): COc1cc(/C=C\c2ccc(OC)c(O)c2)cc(OC)c1 [4c, (Z)5-[2-(3,5-Dimethoxy-phenyl)-vinyl]-2-methoxy-phenol]
- cell cycle of marrow progenitor cells at 0.1 μM [1]: not affected
- toxicity to normal bone marrow progenitor cells versus leukemia cells [1]: much less toxic to normal bone marrow progenitor cells
- cell cycle of marrow progenitor cells at 0.5 μM ([1]; BALB/c, mouse, 16 h, 0.5 μM): small increase in subG0/1 and G2 population
- relative potency [2]: much more potent than the trans counterparts
- phosphorylation of Stat3 ([3]; 0.1 μM): transient increase in phosphorylation at 4 and 8 hours
- phosphorylation of Cdc2 at Tyr15 ([3]; 0.1 μM, 16 hours): decreased dramatically
- phosphorylation of Chk1 ([3]; 36 hours): do not cause more phosphorylation of Chk1
- radioprotection of lethally irradiated mice by treated progenitor cells [4]: all mice were rescued from lethal irradiation
- competition with [3H]-colchicine for tubulin [5]: dose-dependent suppression of tubulin-colchicine interaction
- effect on tubulin polymerization (Tubulin (>99% pure)): suppressed tubulin polymerization in a dose-dependent manner but less potent than stilbene 4a
